From patent publication US11661419B2, “Benzimidazole derivative compounds and uses thereof” (Pfizer Inc., priority 2019, dated 2023) come the findings set out here.

Assay [1] concerns IL-2 in activated CD4+ human T-cells. Description: IL-2 inhibition in supernatants from activated CD4+ human T-cells (cisbio HTRF). The note with it: T-cell; geometric mean of count n; CD3/CD28-expanded human CD4+ T cells stimulated with ImmunoCult, 20 to 24 hrs. Format: cell-based. How it is done: IL-2-Inhibition Activity, IC50 (uM)
IL-2 inhibition activity in supernatants from activated CD4+ human T-cells was determined by measuring the effect of a test compound on the activity using the cisbio HTRF™ technology.
Human CD4+ T cells were activated with CD3/CD28 for 3 days and expanded for an additional 4-6 days (7 to 9 days total). On day 0, frozen CD4+ T cells were thawed, treated with CD3/CD28 Dynabeads, and incubated at 37° C./5% CO2. On day 3, the beads were removed, and the cells were diluted to 5×10^5 cells/cm^2, placed in G-Rex10 flask, and incubated at 37° C./5% CO2. On day 7 to day 9 the cells were removed from the G-Rex flasks, counted and diluted back to 1×10^6 cells/ml in standard tissue culture flask.
The expanded CD4+ T-cells were centrifuged at 300×g for 10 minutes and resuspended to 0.5 million cells per ml (30,000 cells/well). 60 μl of CD4+ T cells were added per well to a 384 well plate containing 0.1 μL of varying concentrations of test compound in DMSO. The plates were incubated for 15 min at 37° C./5% CO2. 20 μl of diluted ImmunoCult™ ([…] Technologies, 1:12.5 in T cell assay media) were added to all wells of the plate (1:50 final assay concentration). The plates were incubated for an additional 20 to 24 hrs at 37° C./5% CO2. The plates were centrifuged at 300×g for 10 minutes. 16 μL of supernatant was removed and combined with 4 μl of IL-2 HTRF Abs. (cisbio kit). Plates were incubated for 3 hours at RT and read with an EnVision plate reader at 665 nm and 615 nm wavelengths.
For orientation: Time-resolved FRET reads energy transfer from a long-lived donor to a nearby acceptor.

For assay [2], the target named is Tropomyosin receptor kinase A (TRKA, NTRK1) (Homo sapiens (Human), UniProt P04629). Description: TRKA (NTRK1) enzyme Z'-LYTE assay. It is filed as biochemical. The note with it: arithmetic mean of count n; test compound 1 uM, ATP 1 mM. How it is done:
Tropomyosin Receptor Kinase a (TRKA) Activity, % Inhibition
TRKA, also known as neurotrophic tyrosine kinase receptor type 1 (NTKR1) activity was determined by measuring the effect of a test compound on the activity against the NTRK1 enzyme using the ThermoFisher Z'-LYTE Assay fluorescence-based coupled enzyme format (www.thermofisher.com/selectscreen). […] The resulting effect value for the tested compound was compared to the assay controls to determine the % inhibition (%).

Chain of Tropomyosin receptor kinase A (TRKA, NTRK1) (P04629 33-796): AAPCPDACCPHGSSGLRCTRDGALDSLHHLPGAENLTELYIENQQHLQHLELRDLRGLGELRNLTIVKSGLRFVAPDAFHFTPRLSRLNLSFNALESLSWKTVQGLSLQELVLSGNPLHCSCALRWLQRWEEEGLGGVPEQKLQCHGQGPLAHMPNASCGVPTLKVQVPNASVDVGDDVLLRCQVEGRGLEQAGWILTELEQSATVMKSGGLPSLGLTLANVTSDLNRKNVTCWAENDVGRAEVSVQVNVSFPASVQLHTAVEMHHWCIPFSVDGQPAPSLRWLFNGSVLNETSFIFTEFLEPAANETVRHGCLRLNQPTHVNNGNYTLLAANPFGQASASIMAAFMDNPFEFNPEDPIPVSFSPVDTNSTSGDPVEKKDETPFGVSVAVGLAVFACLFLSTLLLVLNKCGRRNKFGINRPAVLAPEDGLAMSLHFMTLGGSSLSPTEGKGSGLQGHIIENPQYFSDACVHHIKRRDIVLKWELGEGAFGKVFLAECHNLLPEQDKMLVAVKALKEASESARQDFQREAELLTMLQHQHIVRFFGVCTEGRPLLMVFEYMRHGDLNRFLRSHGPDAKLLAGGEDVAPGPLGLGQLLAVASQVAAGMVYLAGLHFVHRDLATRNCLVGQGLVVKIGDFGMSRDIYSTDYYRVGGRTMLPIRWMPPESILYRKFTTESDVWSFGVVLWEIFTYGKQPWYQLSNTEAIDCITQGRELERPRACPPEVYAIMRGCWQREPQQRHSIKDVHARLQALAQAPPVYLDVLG

For orientation: IC50 means the point on the concentration scale where inhibition reaches its midpoint. A lower IC50 goes with higher potency. In general, inhibition refers to the drop in the measured response relative to a control, in per cent. On to `C[C@@H](C(=O)N(C)c1cc(Br)c2[nH]c(-c3n[nH]c4c3C[C@@H]3C[C@]3(C)C4)nc2c1)N1CCOCC1` [Example 37, (S)—N-(7-bromo-2-((4aS,5aR)-5a-methyl-1,4,4a,5,5a,6-hexahydrocyclopropa[f]indazol-3-yl)-1H-benzo[d]imidazol-5-yl)-N-methyl-2-morpholinopropanamide], for which, in assay [1], the IC50 amounted to 130 nM. Further, in assay [2], the inhibition at 1 µM is 96%.

As for `C[C@@H](C(=O)N(C)c1cc(C#N)c2[nH]c(-c3n[nH]c4c3C[C@@H]3C[C@]3(C)C4)nc2c1)N1CCOCC1` [Example 38, (S)—N-(7-cyano-2-((4aS,5aR)-5a-methyl-1,4,4a,5,5a,6-hexahydrocyclopropa[f]indazol-3-yl)-1H-benzo[d]imidazol-5-yl)-N-methyl-2-morpholinopropanamide], in assay [1], 85 nM corresponded to half-maximal inhibition (IC50). Further, the inhibition at 1 µM in assay [2] was 96%.

Regarding `COc1cc(N(C)C(=O)[C@H](C)N2CCOCC2)cc2nc(-c3n[nH]c4c3C[C@@H]3C[C@]3(C)C4)[nH]c12` [Example 40, (S)—N-(7-methoxy-2-((4aS,5aR)-5a-methyl-1,4,4a,5,5a,6-hexahydrocyclopropa[f]indazol-3-yl)-1H-benzo[d]imidazol-5-yl)-N-methyl-2-morpholinopropanamide], the concentration for half-maximal inhibition (IC50) in assay [1] came out at 103 nM. Besides, the inhibition at 1 µM in assay [2] came out at 96%.

`C[C@@H](C(=O)N(C)c1cc(C(F)(F)F)c2[nH]c(-c3n[nH]c4c3C[C@@H]3C[C@]3(C)C4)nc2c1)N1CCOCC1` [Example 41, (S)—N-methyl-N-(2-((4aS,5aR)-5a-methyl-1,4,4a,5,5a,6-hexahydrocyclopropa[f]indazol-3-yl)-7-(trifluoromethyl)-1H-benzo[d]imidazol-5-yl)-2-morpholinopropanamide]: the IC50 in assay [1] was 176 nM. Moreover, the inhibition at 1 µM in assay [2] turned out to be 96%.

`COCc1cc(N(C)C(=O)[C@H](C)N2CCOCC2)cc2nc(-c3n[nH]c4c3C[C@@H]3C[C@]3(C)C4)[nH]c12` [Example 42, (S)—N-(7-(methoxymethyl)-2-((4aS,5aR)-5a-methyl-1,4,4a,5,5a,6-hexahydrocyclopropa[f]indazol-3-yl)-1H-benzo[d]imidazol-5-yl)-N-methyl-2-morpholinopropanamide] yielded a concentration for half-maximal inhibition (IC50) in assay [1] of 200 nM. Further, the inhibition at 1 µM in assay [2] amounted to 98%.

The compound `C[C@@H](C(=O)N(C)c1cc(Cl)c2[nH]c(-c3n[nH]c4c3C[C@@H]3C[C@]3(C)C4)nc2c1)N1CCOCC1` [Example 43, (S)—N-(7-chloro-2-((4aS,5aR)-5a-methyl-1,4,4a,5,5a,6-hexahydrocyclopropa[f]indazol-3-yl)-1H-benzo[d]imidazol-5-yl)-N-methyl-2-morpholinopropanamide] displayed an IC50 in assay [1] of 171 nM. For the same compound, the inhibition at 1 µM in assay [2] came to 96%.

With `CCc1cc(N(C)C(=O)[C@H](C)N2CCOCC2)cc2nc(-c3n[nH]c4c3C[C@@H]3C[C@]3(C)C4)[nH]c12` [Example 44, (S)—N-(7-ethyl-2-((4aS,5aR)-5a-methyl-1,4,4a,5,5a,6-hexahydrocyclopropa[f]indazol-3-yl)-1H-benzo[d]imidazol-5-yl)-N-methyl-2-morpholinopropanamide], in assay [1], it took 219 nM to reach half-maximal inhibition (IC50). Further, the inhibition at 1 µM in assay [2] is 94%.

For `C[C@@H](C(=O)N(C)c1cc(CO)c2[nH]c(-c3n[nH]c4c3C[C@@H]3C[C@]3(C)C4)nc2c1)N1CCOCC1` [Example 45, (S)—N-(7-(hydroxymethyl)-2-((4aS,5aR)-5a-methyl-1,4,4a,5,5a,6-hexahydrocyclopropa[f]indazol-3-yl)-1H-benzo[d]imidazol-5-yl)-N-methyl-2-morpholinopropanamide], the IC50 in assay [1] came out at 365 nM. The inhibition at 1 µM in assay [2] turned out to be 97%.

For `Cc1c(F)c(N(C)C(=O)[C@H](C)N2CCOCC2)cc2nc(-c3n[nH]c4c3C[C@@H]3C[C@]3(C)C4)[nH]c12` [Example 47, (S)—N-(6-fluoro-7-methyl-2-((4aS,5aR)-5a-methyl-1,4,4a,5,5a,6-hexahydrocyclopropa[f]indazol-3-yl)-1H-benzo[d]imidazol-5-yl)-N-methyl-2-morpholinopropanamide], the IC50 in assay [1] was 161 nM. Further, the inhibition at 1 µM in assay [2] stood at 98%.

`C[C@@H](C(=O)N(C)c1cc(C(F)F)c2[nH]c(-c3n[nH]c4c3C[C@@H]3C[C@]3(C)C4)nc2c1)N1CCOCC1` [Example 48, (S)—N-(7-(difluoromethyl)-2-((4aS,5aR)-5a-methyl-1,4,4a,5,5a,6-hexahydrocyclopropa[f]indazol-3-yl)-1H-benzo[d]imidazol-5-yl)-N-methyl-2-morpholinopropanamide] displayed an IC50 in assay [1] of 207 nM. Besides, in assay [2], the inhibition at 1 µM is 95%.

`COCCOc1cc2[nH]c(-c3n[nH]c4c3C[C@@H]3C[C@]3(C)C4)nc2cc1N(C)C(=O)[C@H](C)N1CCOCC1` [Example 49, (S)—N-(6-(2-methoxyethoxy)-2-((4aS,5aR)-5a-methyl-1,4,4a,5,5a,6-hexahydrocyclopropa[f]indazol-3-yl)-1H-benzo[d]imidazol-5-yl)-N-methyl-2-morpholinopropanamide]: the 50% inhibitory concentration (IC50) in assay [1] was determined as 100 nM. Further, the inhibition at 1 µM in assay [2] was found to be 98%.

Regarding `Cc1cc(N(C)C(=O)[C@H](C)N2CCOCC2)cc2nc(-c3n[nH]c4c3C[C@@H]3C[C@]3(C)C4)[nH]c12` [Example 50, (S)—N-methyl-N-(7-methyl-2-((4aS,5aR)-5a-methyl-1,4,4a,5,5a,6-hexahydrocyclopropa[f]indazol-3-yl)-1H-benzo[d]imidazol-5-yl)-2-morpholinopropanamide], in assay [1], the half-maximal inhibitory concentration (IC50) was determined as 126 nM. In addition, the inhibition at 1 µM in assay [2] was 97%.

The compound `Cc1cc(N(C)C(=O)[C@H](C)N2CCOCC2)cc2nc(-c3n[nH]c4c3C[C@@H]3C(F)(F)[C@]3(C)C4)[nH]c12` [Example 51, (S)—N-(2-((4aS,5aR)-5,5-difluoro-5a-methyl-1,4,4a,5,5a,6-hexahydrocyclopropa[f]indazol-3-yl)-7-methyl-1H-benzo[d]imidazol-5-yl)-N-methyl-2-morpholinopropanamide] displayed a concentration for half-maximal inhibition (IC50) in assay [1] of 19 nM. In assay [2], the inhibition at 1 µM is 97%.

In the case of `Cc1cc2[nH]c(-c3n[nH]c4c3C[C@@H]3C[C@]3(C)C4)nc2cc1NC(=O)[C@H](C)N1CCOCC1` [Example 52, (S)—N-(6-methyl-2-((4aS,5aR)-5a-methyl-1,4,4a,5,5a,6-hexahydrocyclopropa[f]indazol-3-yl)-1H-benzo[d]imidazol-5-yl)-2-morpholinopropanamide], the midpoint of inhibition in assay [1], the IC50, lay at 274 nM. For the same compound, in assay [2], the inhibition at 1 µM turned out to be 109%.

In assay [1], `C[C@@H](C(=O)N(C)c1cc(C#N)c2[nH]c(-c3n[nH]c4c3C[C@@H]3C[C@]3(C)C4)nc2c1)C1CCOCC1` [Example 55, (R)—N-(7-cyano-2-((4aS,5aR)-5a-methyl-1,4,4a,5,5a,6-hexahydrocyclopropa[f]indazol-3-yl)-1H-benzo[d]imidazol-5-yl)-N-methyl-2-(tetrahydro-2H-pyran-4-yl)propanamide] came in with a 50% inhibitory concentration (IC50) of 41 nM. For the same compound, the inhibition at 1 µM in assay [2] came out at 89%.
